Results from PubChem BioAssay (NCI).
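These data come from cells grown in 96-well plates and exposed to compound for 48 hours at five concentrations. At the TGI there is no net growth.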

Assays:
Experiment in all cases: growth of human tumour cells (NCI), 48 h
[1] = system: NCI-H460 lung
[2] = system: MCF7 breast
[3] = system: 786-0 renal
[4] = system: A498 renal
[5] = system: UACC-62 melanoma
[6] = system: SR leukemia
[7] = system: OVCAR-5 ovarian
[8] = system: CAKI-1 renal
[9] = system: SK-MEL-5 melanoma
[10] = system: COLO 205 colon
[11] = system: SW-620 colon
[12] = system: KM12 colon
[13] = system: NCI-H23 lung
[14] = system: UACC-257 melanoma
[15] = system: MDA-N
[16] = system: HT29 colon
[17] = system: TK-10 renal
[18] = system: OVCAR-3 ovarian
[19] = system: HOP-62 NSCLC
[20] = system: DU-145 prostate
[21] = system: MDA-MB-435
[22] = system: RPMI-8226 leukemia
[23] = system: MDA-MB-231 breast
[24] = system: SN12C renal
[25] = system: U251 CNS
[26] = system: HCC-2998 colon
[27] = system: PC-3 prostate
[28] = system: OVCAR-4 ovarian
[29] = system: SF-539 CNS
[30] = system: BT-549 breast
[31] = system: SK-MEL-2 melanoma
[32] = system: NCI-H226 lung
[33] = system: UO-31 renal
[34] = system: EKVX NSCLC
[35] = system: MOLT-4 leukemia
[36] = system: NCI/ADR-RES ovarian
[37] = system: CCRF-CEM leukemia
[38] = system: LOX IMVI melanoma
[39] = system: T-47D breast
[40] = system: SF-295 CNS
[41] = system: SF-268 CNS
[42] = system: OVCAR-8 ovarian
[43] = system: SK-OV-3 ovarian
[44] = system: HCT-116 colon
[45] = system: HCT-15 colon
[46] = system: SNB-19 CNS
[47] = system: A549 NSCLC
[48] = system: M14 melanoma
[49] = system: ACHN renal
[50] = system: K-562 leukemia
[51] = system: RXF 393 renal
[52] = system: HL-60(TB) leukemia
[53] = system: MALME-3M melanoma
[54] = system: SK-MEL-28 melanoma
[55] = system: SNB-75 CNS
[56] = system: NCI-H522 lung
[57] = system: IGROV1 ovarian
[58] = system: HOP-92 NSCLC

## CCNC(=S)NNC(=O)c1csc(NC(=S)NC2CCCCC2)n1
[1]
  TGI: 35.2 µM
[2]
  TGI: > 100 µM
[3]
  TGI: 25.6 µM
[4]
  TGI: 40 µM
[5]
  TGI: 27.7 µM
[6]
  TGI: > 100 µM
[7]
  TGI: > 100 µM
[8]
  TGI: 31.1 µM
[9]
  TGI: 15.5 µM
[10]
  TGI: 21.9 µM
[11]
  TGI: 19.2 µM
[12]
  TGI: 28 µM
[13]
  TGI: > 100 µM
[14]
  TGI: 27.3 µM
[15]
  TGI: 15.8 µM
[16]
  TGI: > 100 µM
[17]
  TGI: > 100 µM
[18]
  TGI: 16.2 µM
[19]
  TGI: 32.4 µM
[20]
  TGI: 45.8 µM
[21]
  TGI: 21.1 µM
[22]
  TGI: 71.6 µM
[23]
  TGI: 24.9 µM
[24]
  TGI: 17.3 µM
[25]
  TGI: 23.7 µM
[26]
  TGI: 23.8 µM
[27]
  TGI: 64.5 µM
[28]
  TGI: 56.9 µM
[29]
  TGI: 22.8 µM
[30]
  TGI: 36.6 µM
[31]
  TGI: 29.3 µM
[32]
  TGI: > 100 µM
[33]
  TGI: 23.1 µM
[34]
  TGI: > 100 µM
[35]
  TGI: 63.5 µM
[36]
  TGI: 42.4 µM
[37]
  TGI: > 100 µM
[38]
  TGI: 21.4 µM
[39]
  TGI: 53.7 µM
[40]
  TGI: 40.7 µM
[41]
  TGI: 31.4 µM
[42]
  TGI: 28.1 µM
[43]
  TGI: 62.3 µM
[44]
  TGI: 18.8 µM
[45]
  TGI: 37.2 µM
[46]
  TGI: > 100 µM
[47]
  TGI: 67.8 µM
[48]
  TGI: 27.1 µM
[49]
  TGI: 89.8 µM

## CN1CCN(CCCCN2c3ccccc3Sc3ccc(C(=O)c4ccccc4)cc32)CC1
[2]
  TGI: 3.65 µM
[4]
  TGI: 3.12 µM
[5]
  TGI: 2.52 µM
[6]
  TGI: 4.61 µM
[7]
  TGI: 7.43 µM
[8]
  TGI: 2.75 µM
[50]
  TGI: 2.79 µM
[9]
  TGI: 3.08 µM
[10]
  TGI: 3.28 µM
[11]
  TGI: 3.2 µM
[12]
  TGI: 2.49 µM
[13]
  TGI: 3.71 µM
[14]
  TGI: 3.36 µM
[15]
  TGI: 2.92 µM
[51]
  TGI: 2.57 µM
[16]
  TGI: 2.6 µM
[17]
  TGI: 3.11 µM
[18]
  TGI: 3.71 µM
[19]
  TGI: 3.16 µM
[20]
  TGI: 6.73 µM
[21]
  TGI: 3.24 µM
[52]
  TGI: 3.66 µM
[23]
  TGI: 3.38 µM
[24]
  TGI: 3.19 µM
[53]
  TGI: 7.3 µM
[25]
  TGI: 3.09 µM
[54]
  TGI: 2.85 µM
[26]
  TGI: 2.94 µM
[27]
  TGI: 2.83 µM
[28]
  TGI: 6.13 µM
[29]
  TGI: 3.41 µM
[30]
  TGI: 3.04 µM
[31]
  TGI: 3.41 µM
[32]
  TGI: 3.7 µM
[33]
  TGI: 6.27 µM
[34]
  TGI: 15.5 µM
[35]
  TGI: 3.43 µM
[55]
  TGI: 2.58 µM
[56]
  TGI: 3.44 µM
[38]
  TGI: 3.22 µM
[39]
  TGI: 45.4 µM
[40]
  TGI: 3.45 µM
[41]
  TGI: 13 µM
[42]
  TGI: 2.97 µM
[43]
  TGI: 2.94 µM
[44]
  TGI: 3.29 µM
[45]
  TGI: 3.06 µM
[46]
  TGI: 3.45 µM
[47]
  TGI: 3.55 µM
[57]
  TGI: 3.19 µM
[58]
  TGI: 4.68 µM
[48]
  TGI: 3.32 µM
[49]
  TGI: 3.06 µM

## SCCCSCCSCCCSCCS
[1]
  TGI: > 100 µM
[2]
  TGI: > 100 µM
[3]
  TGI: > 100 µM
[5]
  TGI: > 100 µM
[6]
  TGI: > 100 µM
[7]
  TGI: > 100 µM
[50]
  TGI: > 100 µM
[9]
  TGI: > 100 µM
[10]
  TGI: > 100 µM
[11]
  TGI: > 100 µM
[12]
  TGI: > 100 µM
[13]
  TGI: > 100 µM
[14]
  TGI: > 100 µM
[15]
  TGI: > 100 µM
[16]
  TGI: > 100 µM
[18]
  TGI: > 100 µM
[19]
  TGI: > 100 µM
[20]
  TGI: > 100 µM
[21]
  TGI: > 100 µM
[52]
  TGI: > 100 µM
[23]
  TGI: > 100 µM
[24]
  TGI: > 100 µM
[25]
  TGI: > 100 µM
[54]
  TGI: > 100 µM
[26]
  TGI: > 100 µM
[27]
  TGI: > 100 µM
[28]
  TGI: > 100 µM
[29]
  TGI: > 100 µM
[30]
  TGI: > 100 µM
[33]
  TGI: > 100 µM
[34]
  TGI: > 100 µM
[35]
  TGI: > 100 µM
[55]
  TGI: > 100 µM
[56]
  TGI: > 100 µM
[36]
  TGI: > 100 µM
[37]
  TGI: > 100 µM
[38]
  TGI: > 100 µM
[39]
  TGI: > 100 µM
[40]
  TGI: > 100 µM
[41]
  TGI: > 100 µM
[42]
  TGI: > 100 µM
[43]
  TGI: > 100 µM
[44]
  TGI: > 100 µM
[45]
  TGI: > 100 µM
[46]
  TGI: > 100 µM
[47]
  TGI: > 100 µM
[57]
  TGI: > 100 µM
[48]
  TGI: > 100 µM
